Reference: ChEMBL document CHEMBL5505991, “Novel sulfonamide-indolinone hybrids targeting mitochondrial respiration of breast cancer cells” (Eur J Med Chem, 2024)
Calls of active or inactive are those of the source. No cut-off for these calls is given here.

What was measured:
T47D [1] = assay: Antiproliferative activity against human T47D cells assessed as cell growth at 10 uM incubated for 72 hrs by SRB assay relative to control; format: functional; settings: read-out: Activity
MDA-MB-468 [2] = assay: Antiproliferative activity against human MDA-MB-468 cells assessed as cell growth at 10 uM incubated for 72 hrs by SRB assay relative to control; format: functional; settings: read-out: Activity
MDA-MB-468 [3] = assay: Growth inhibition of human MDA-MB-468 cells incubated for 72 hrs by SRB assay; format: functional
Aurora kinase B [4] = biological target: T1, Aurora kinase B (Homo sapiens, UniProt Q96GD4); assay: Inhibition of Aurora B (unknown origin) at 100 nM by Z-LYTE assay relative to control
T47D [5] = assay: Growth inhibition of human T47D cells incubated for 72 hrs by SRB assay; format: functional
MCF7 [6] = assay: Antiproliferative activity against human MCF7 cells assessed as cell growth at 10 uM incubated for 72 hrs by SRB assay relative to control; format: functional; settings: read-out: Activity
MCF7 [7] = assay: Growth inhibition of human MCF7 cells incubated for 72 hrs by SRB assay; format: functional
Aurora kinase B [8] = biological target: T1, Aurora kinase B; assay: Binding affinity to Aurora B (unknown origin) assessed as inhibition constant
Aurora kinase B [9] = biological target: T1, Aurora kinase B; assay: Inhibition of Aurora B (unknown origin)
Aurora kinase B [10] = biological target: T1, Aurora kinase B; assay: Inhibition of Aurora B (unknown origin) at 100 nM relative to control
BNL = assay: Cytotoxicity against mouse BNL cells at upto 100 uM measured after 72 hrs by SRB assay; format: toxicity, cell-based
MCF7 [11] = assay: Inhibition of mitochondrial induced ROS production in human MCF7 cells assessed as reduction in H2O2 production rate at 20 uM incubated for 15 mins in presence of complex II by Amplex ultra red and horseradish peroxidase based fluorescence assay; format: functional, cell-based
MCF7 [12] = assay: Inhibition of mitochondrial respiration in human MCF7 cells assessed as reduction in oxygen consumption rate at 20 uM incubated for 15 mins in presence of complex II; format: functional, cell-based
H9c2 = assay: Cytotoxicity against rat H9c2 cells at upto 100 uM measured after 72 hrs by SRB assay; format: toxicity, cell-based; settings: h9c2, 72 h
MCF7 [13] = assay: Inhibition of mitochondrial respiration in human MCF7 cells assessed as reduction in oxygen consumption rate at 20 uM incubated for 15 mins in presence of complex IV; format: functional, cell-based
MCF7 [14] = assay: Inhibition of mitochondrial respiration in human MCF7 cells assessed as reduction in oxygen consumption rate at 20 uM incubated for 15 mins in presence of complex I; format: functional, cell-based
MCF7 [15] = assay: Induction of cell cycle arrest in human MCF7 cells assessed as accumulation of cells at G0/G1 phase at 5 to 7 uM measured after 24 hrs by PI staining based flow cytometry analysis; format: functional; settings: dose 5-7 µM
MCF7 [16] = assay: Inhibition of mitochondrial respiration in human MCF7 cells assessed as reduction in oxygen consumption rate at 20 uM incubated for 15 mins; format: functional, cell-based

T1 sequence (Q96GD4 whole entry): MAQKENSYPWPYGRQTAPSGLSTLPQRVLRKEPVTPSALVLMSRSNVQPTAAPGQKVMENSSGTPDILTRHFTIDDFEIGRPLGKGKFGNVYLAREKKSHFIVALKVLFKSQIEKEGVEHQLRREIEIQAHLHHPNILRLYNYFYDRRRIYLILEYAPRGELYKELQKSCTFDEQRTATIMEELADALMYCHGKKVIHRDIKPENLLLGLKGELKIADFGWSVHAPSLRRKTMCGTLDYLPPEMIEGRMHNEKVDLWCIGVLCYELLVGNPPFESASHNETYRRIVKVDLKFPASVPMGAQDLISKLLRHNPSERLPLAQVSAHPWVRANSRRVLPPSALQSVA

| SMILES | growth at 10 µM (T47D [1]) | growth at 10 µM (MDA-MB-468 [2]) | GI50 (MDA-MB-468 [3]) | inhibition (Aurora kinase B [4]) | GI50 (T47D [5]) | growth at 10 µM (MCF7 [6]) | GI50 (MCF7 [7]) | other results |
| --- | --- | --- | --- | --- | --- | --- | --- | --- |
| O=C1Nc2cc(-c3ccc(NS(=O)(=O)c4ccc(C(F)(F)F)cc4)cc3)ccc2/C1=C/c1ccc[nH]1 | 18.1% | -26.2% | 31.1 nM | 18% | 230 nM | 0.78% | 81.8 nM | – |
| COc1ccc(S(=O)(=O)Nc2ccc(-c3ccc4c(c3)NC(=O)/C4=C\c3ccc[nH]3)cc2)cc1OC | -21% | -56.2% | 30.9 nM | 33% | 28.5 nM | -39% | 47.7 nM | – |
| O=C1Nc2cc(-c3ccc(O)cc3)ccc2/C1=C/c1ccc[nH]1 | – | – | – | – | – | – | – | Ki (Aurora kinase B [8]): 19.9 nM |
| O=C1Nc2cc(-c3ccc(NS(=O)(=O)c4ccc(-c5ccccc5)cc4)cc3)ccc2/C1=C/c1ccc[nH]1 | 3.17% | -52.5% | 40.2 nM | 20% | 136 nM | -25.2% | 74.6 nM | – |
| O=C1Nc2cc(-c3ccc(NS(=O)(=O)c4cccc(Cl)c4)cc3)ccc2/C1=C/c1ccc[nH]1 | 12.1% | -29.3% | – | 43% | – | -6.08% | – | – |
| CC(=O)Nc1ccc(S(=O)(=O)Nc2ccc(-c3ccc4c(c3)NC(=O)/C4=C\c3ccc[nH]3)cc2)cc1 | 20.7% | -7.1% | – | 46% | – | 14.3% | – | – |
| O=C(Nc1ccc(-c2ccc3c(c2)NC(=O)/C3=C\c2ccc[nH]2)cc1)NC1CC1 | – | – | – | – | – | – | – | IC50 (Aurora kinase B [9]): 10.5 nM |
| O=C1Nc2cc(-c3ccc(NS(=O)(=O)c4cccc(Br)c4)cc3)ccc2/C1=C/c1ccc[nH]1 | 15.6% | -44% | 28.6 nM | 38% | 41.7 nM | -18.4% | 30.2 nM | – |
| O=C1Nc2cc(-c3ccc(NS(=O)(=O)c4ccc([N+](=O)[O-])cc4)cc3)ccc2/C1=C/c1ccc[nH]1 | 15.9% | -29.6% | 778 nM | 49% | 4770 nM | -23.6% | 1730 nM | – |
| Cc1[nH]c(/C=C2\C(=O)Nc3cc(-c4ccc(NS(=O)(=O)c5ccc(F)c(Cl)c5)cc4)ccc32)c(C)c1NS(C)(=O)=O | 17.9% | 8.19% | – | 53% | – | 4.18% | – | – |
| O=C1Nc2cc(-c3ccc(NS(=O)(=O)c4ccccc4)cc3)ccc2/C1=C/c1ccc[nH]1 | – | – | – | – | – | – | – | inhibition (Aurora kinase B [10]): 66% |
| O=C1Nc2cc(-c3ccc(NS(=O)(=O)c4ccc5ccccc5c4)cc3)ccc2/C1=C/c1ccc[nH]1 | -16.7% | -80.8% | 25.4 nM | 20% | 47.1 nM | -51.9% | 33.6 nM | – |
| O=C1Nc2cc(-c3ccc(NS(=O)(=O)c4ccc(Br)cc4)cc3)ccc2/C1=C/c1ccc[nH]1 | 9.33% | -66.9% | 25.4 nM | 32% | 61.3 nM | -77.4% | 31.6 nM | – |
| Cc1ccc(S(=O)(=O)Nc2ccc(-c3ccc4c(c3)NC(=O)/C4=C\c3ccc[nH]3)cc2)cc1 | 18.8% | -25.8% | – | 23% | – | 3.35% | – | – |
| CCN(CC)CCNC(=O)c1c(C)[nH]c(/C=C2\C(=O)Nc3cc(-c4ccc(NS(=O)(=O)c5ccc(F)c(Cl)c5)cc4)ccc32)c1C | -49.1% | -90.5% | – | 90% | – | -85.2% | – | Activity (BNL): Non-Toxic; inhibition (MCF7 [11]): Active; inhibition (MCF7 [12]): Active; Activity (H9c2): Non-Toxic; inhibition (MCF7 [13]): inactive; inhibition (MCF7 [14]): Active; Activity (MCF7 [15]): Active; inhibition (MCF7 [16]): Active |
